For one data set, the system named is hypothalamic neurons. Kind of data set: Microelectrode array (MEA) recording of organotypic hypothalamic slices. The data set is classed as cell-based, Leprdb (db/db diabetic) mice. As to conditions: 500 nM; db/db male and female mice. The procedure: We determined whether ex vivo organotypic culture of hypothalamic slices (200 μm in thickness) obtained from brains of C57BL/6J (WT) mice and age matched Leprdb (db/db diabetic) mice were electrically active and capable of firing trains of action potentials using Maestro microelectrode arrays (MEA) performed with MaestroPro MEA system from Axion Biosystems, GA.
MEA measurements were carried out using a 48-well Microelectrode array (MEA) plate (M768-tMEA-48W) from Axion Biosystems, GA. Each well of the MEA plate, contained a 4×4 grid of […] circular nanoporous PEDOT electrodes embedded in the cell culture substrate, with a pole-to-pole electrode spacing of […]. In preparation for seeding hypothalamic slices, the wells were treated with 0.1% polyethylenimine (PEI) in sodium borate buffer, pH 8.4. Wells were then pre-coated in laminin (6 μg/mL) and the hypothalamic slices (200 μm in thickness) were plated on the electrode grid. […]
Extracellular recordings of spontaneous action potentials were performed in culture medium at 37° C. using the standard neural setting of the MaestroPro MEA system and AxIS software version 1.5.1.12. […] Recorded spike number per electrode were averaged after disregarding noisy electrodes from analysis. […]
Using the MEA system, population level electrical activity was recorded from different hypothalamic neurons. […]

The next data set concerns RPE and PRC. Kind of data set: Subretinal injection of OAβ in WT mice +/- ELVs (RPE flat mount, OCT, qPCR, Western blot). The class given is in vivo. As to conditions: for OAβ-activated senescence program (p16INK4a, MMP1, p53, p21, p27, Il-6, SASP secretome) followed by RPE and PRC demise: summary of mouse and human RPE data. An excerpt:
(A) In vivo experimental design: 6-month-old C57BL/6J WT mice were divided into 7 groups (n=12/group): non-injected, PBS, OAβ only, OAβ+ELV-N-32, OAβ+ELV-N-34, ELV-N-32 only and ELV-N-34 only. On day 3, mRNA were isolated for Real-Time PCR. On day 7, mice were subjected to OCT and then eyes enucleated and processed for whole mount RPE staining and Western blots. (B) Whole flat mount of RPE with tight junction marker, Zonula occludens-1 (ZO-1) antibody. OAβ disrupted RPE morphology. (C) OAβ effects on retina and RPE by OCT. (D) Thickness of PRC layer was thinner in OAβ injected group. (E) RPE gene expression after Oaβ (1-42) injection and treatment with ELVs. (E-G) Gene expression in the same functional group were plotted. Senescence- and AMD-related genes (E), and collagenases, gelatinase, stromelysins and others matrix metalloproteinases (MMP) (F) and autophagy (G). (H) p16INK4a, a key marker for senescence, western blots of RPE. (I) Retina apoptosis gene expression after OAβ (1-42) injection and treatment with ELVs. (*P<0.05, student t-test).
ELVs restore RPE morphology and reduce gene expression after subretinal injection of OAβ in WT mice. (A) Mice were divided into 7 groups: non-injected, PBS, OAβ only, OAβ+ELV-N-32, OAβ+ELV-N-34, ELV-N-32 only and ELV-N-34 only. On day 3, mRNA were isolated for RT-PCR. On day 7, mice were subjected to OCT and then eyes were enucleated and processed to whole mount RPE staining and Western blot. (B) Whole flat mount of RPE. OAβ disrupted RPE morphology. However, RPE were less damage in the ELVs treatment group as well as PBS, ELVs alone did non induce changes. (C) Evaluation the OAβ effects on retina and RPE by OCT. (D) The thickness of PRC was thin in the OAβ injected group. OAβ cause the cell death of PRC, as the thinner in OCT measurement. (E) RPE gene expression after OAβ (1-42) injection and treatment with ELVs. 3 days after injection, the RNAs from RPE were isolated, reverse transcribed into cDNA and subjected to RT-PCR with different primers. Genes in the same functional group were plotted in the same chart, including senescence- and AMD-related genes (E), and collagenases, gelatinase, stromelysins and others matrix metalloproteinases (MMP) (F) and autophagy (G). (H) p16INK4a western blots of RPE/Choroid. […] (I) Retina gene expression after OAβ (1-42) injection and treatment with ELVs. OAβ activates apoptosis genes in the retina. […] (*P<0.05, using student t-test comparison).
All animal experiments were performed according to ARVO Statement for the Use of Animals in Ophthalmic and Vision Research, and the protocol was approved by LSU Health New Orleans' Institutional Animal Care and Use Committee (IACUC). 6-month-old 5×FAD mice (stock number: 34848-JAX, The Jackson Laboratory, Bar Harbor, Me., USA), co-overexpress FAD mutant forms of human amyloid precursor protein (the Swedish mutation: K670N, M671L; the Florida mutation: I716V; and the London mutation: V7171) and presenilin 1 (PS1, encoded by Psen1: M146L, L286V) transgenes under transcriptional control of the neuron-specific mouse Thy1 promoter. 5×FAD mice were hemizygotes with respect to the transgenes and non-transgenic WT littermates. Genotyping was performed by PCR of tail DNA. All analyses were carried out blind with respect to the mice genotype. For the subretinal injection, 6-month-old C57BL/6J mice were anesthetized by an intraperitoneal injection of ketamine/xylazine, pupils dilated with 1.0% tropicamide (Akorn, Ill., USA); and 0.5% Proparacaine Hydrochloride (Akorn) was applied for topical anesthesia. Eyes were punctured with a 30-gauge needle between the corneoscleral junction and the ora serrata into the vitreous cavity without disturbing the lens. Compounds were delivered to the subretinal region using a 33-gauge blunt needle attached to a 5p.1 Hamilton syringe (Hamilton Company, Reno, Nev., USA) under a dissecting microscope. Non-injected mice were used as negative control while the PBS injected mice were used for sham. […]

The test system of another data set is human RPE cells. The experiment in a line: Oxidative-stress and Erastin induced cell death in human RPE cells. The class given is cell-based.
A further data set has as its system primary human RPE cells. The experiment in a line: Primary human RPE cells treated with 10 μM OAβ +/- ELVs (SA-β-Gal staining, qPCR). As to conditions: 3 days qPCR, 7 days staining. The data set is classed as cell-based. On the procedure:
(A) In vitro experimental design: Primary human RPE cells were treated with 10 μM OAβ+/−ELVs. After 3 days, RNA was isolated and qPCR analyzed. After 7 days, cells were subjected to β-Galactosidase staining. (B) Live cell images under bright field microscopy after 7 days. (C) β-Gal staining+/−ELVs. Quantitation of % for the β-Gal positive cells. ELVs decreased positive senescent cells. (D) Gene transcription of senescence, AMD-related and autophagy genes after OAβ (1-42) exposure+/−ELVs. (*P <0.05, student t-test).
OAβ toxicity is counteracted by ELVs in primary hRPE. (A) Primary hRPE cells were treated with 10 μM OAβ with or without adding ELVs. After 3 days, the total RNA was isolated and q-PCR analyzed. After 7 days, cells were subjected to β-Galactosidase staining. (B) Live cell images of primary hRPE under bright field microscope imaging after 7 days. (C) β-Galactosidase staining of primary hRPE, +/−ELVs. Quantitation of % for the β-Gal positive cells. ELVs decreased positive senescent cells. […]
Cells were visualized using SA-β-Gal staining kit (Cat 9860, Cell Signaling Technology, MA, USA). […] Pictures were taken under brightfield microscope (Nikon Eclipse TS100) 200× magnification after the development of blue color, and cells counted in 10 different random fields per well. […]

Another data set concerns RPE single-cells. Kind of data set: UOS-induced transcriptome changes in RPE single-cells. The data set is classed as cell-based. The source says:
Dots in box plots represent expression of the gene for a single RPEC (total of 96 per sample). P<0.001 (***), P<0.01 (**), One-way Anova, with Post-Hoc Tukey HSD test for multiple comparisons.

For data set [1] the following is noted: methyl ester or sodium salt; administered 1 hour following 2 hours of ischemia; cited from earlier work.
Where [2] appears, read: co-injected with OAβ subretinally, then topical ELV, day 7.

Take `CC/C=C\C[C@H](O)\C=C/C=C/C=C/[C@H](O)C/C=C\C/C=C\CCCCCCCCCCCCCCC(=O)[O-].[Na+]` [ELV-34-6 Na, sodium (16Z,19Z,22R,23E,25E,27Z,29S,31Z)-22,29-dihydroxytetratriaconta-16,19,23,25,27,31-hexaenoate]: the “spiking activity of hypothalamic slices (MEA)” value in the data set on hypothalamic neurons was “synchronous spiking is restored”.
For the molecule `CC/C=C\C[C@H](O)\C=C/C=C/C=C/[C@H](O)C/C=C\C/C=C\CCCCCCCCCCCCC(=O)O` [ELV-N-32], in the data set with RPE and PRC (ELV alone, no OAβ, subretinal), the “PRC degeneration / ONL after ELV injected alone” value is recorded as “did not yield PRC degeneration”. For the same molecule, in the data set on RPE and PRC (setting [2]), the “PRC protection (PRC layer, OCT)” value is “protection of PRC” and the “RPE morphology (ZO-1 whole flat mount)” value is reported as “restoration of RPE morphology”. In the data set on RPE and PRC (elevated by OAβ injection, day 7), the “p16INK4a protein (western blot of RPE/Choroid)” value was “down regulated”. Besides, in the data set with RPE and PRC, the “OAβ-activated senescence program (p16INK4a, MMP1, p53, p21, p27, Il-6, SASP secretome) followed by RPE and PRC demise” value (shortened to “OAβ-activated senescence program”) is “blunt these events and elicit protection to both cells”. In the data set with RPE and PRC (listed as ELV 32), the “OAβ-activated senescence program” value was “downregulatory mediators of OAβ-evoked senescence”. In addition, in the data set on RPE and PRC (listed as elovanoid 32), the “OAβ-activated senescence program” value was “blunt these events and elicits protection”. Moreover, the “oxidative-stress and Erastin induced cell deaths” value in the data set with human RPE cells is on record as “counteracted”. Moreover, in the data set on primary human RPE cells, the “OAβ effects: RPE cell morphology, SASP (SA-β-Gal), senescence, AMD, MMP and autophagy gene expression” value is on record as “reverted these effects”. The “UOS-induced up-regulation of pro-inflammatory transcriptome and down-regulation of pro-homeostatic pathways” value in the data set on RPE single-cells is listed as “suppress these changes”. In addition, in data set [1], the cell survival result was “promoted cell survival”, the infarct volumes entry is given as “reduced infarct volumes” and the neurovascular unit disruption entry is “diminished neurovascular unit disruption”.
Take `CC/C=C\C[C@H](O)\C=C/C=C/C=C/[C@H](O)C/C=C\C/C=C\CCC(=O)O` [NPD1, 10R,17S-dihydroxy-docosa-4Z,7Z,11E,13E,15Z,19Z-hexaenoic acid, reference compound]: the “oxidative-stress and Erastin induced cell deaths” value in the data set with human RPE cells was “counteracted”. The “UOS-induced up-regulation of pro-inflammatory transcriptome and down-regulation of pro-homeostatic pathways” value in the data set with RPE single-cells is listed as “suppress these changes”.
On to “OAβ: oligomerized Aβ (1-42) peptide, used as cytotoxic stressor [reference compound]”, for which the “PRC layer thickness (OCT)” value in the data set on RPE and PRC (OAβ-injected retina, non-injected retina 105 μm) was determined as 35 μm.

The values above are taken from US20220339134A1, “VERY-LONG-CHAIN POLYUNSATURATED FATTY ACIDS, ELOVANOID HYDROXYLATED DERIVATIVES, AND METHODS OF USE” (Board of Supervisors of Louisiana State University and …, priority 2019, published 2022).
